Experimental data as given in patent US20140044690A1, “High-Energy Compounds for Use in Alzheimer's and Other Neurodegenerative Diseases” (University Of South Florida, priority 2012, published 2014).

Key:
APP α-processing [1] = assay: APP secretion assay (sAPPα release, Western blotting) in SH-SY5Y cells; format: cell-based, human; conditions: for effect on APP α-processing / APP secretion (in words) / sAPPα release relative to basal line: 2 hours; for effect on APP α-processing / APP secretion (in words): compared with ATP, acetyl-coA, PCr; for sAPPα release relative to basal line: 1 mM each
Procedure: (§1) SH-SY5Y and fibroblast cells were routinely maintained in DMEM supplemented with 10% bovine fetal serum and 100 μg/ml of streptomycine and 100 U/ml of penicillin. For APP secretion assay, the cells were subcultured in the 12-well plate until confluence and then pre-incubated in the serum-free DMEM for 1 hour before the addition of the testing agents. After incubation for 2 hours at 37° C., conditioned medium was collected and cleared by centrifugation. Proteins were precipitated by trichloroacetic acid and processed for gel electrophoresis and Western blotting as described previously (Weidemann et al. 1989; Chen and Fernandez, 2004). A near-infrared dye-conjugated secondary antibody (LI-COR Biosci., NE, USA) was used and visualized with a LI-COR Odyssey Infrared Imaging System.

APP α-processing [2] = assay: APP secretion assay (sAPPα release) in human skin fibroblasts from young and aged donors; format: cell-based; conditions: for sAPPα release in aged cells, of the young cell level: aged human skin fibroblasts (donor age 81-96), 0.5 mM each, untreated aged cells 42.5%; for sAPPα level, of the control, co-treatment with rotenone: 0.2 μM rotenone two hours; for sAPPα level, of the control, co-treatment with rotenone / sAPPα level, of the control, co-treatment with H2O2: co-treatment 1.5 mM each; for sAPPα level, of the control, co-treatment with H2O2: 0.2 mM H2O2 two hours
Procedure: as §1

SH-SY5Y cells = assay: Cell survival and viability MTT assay / microscopy in SH-SY5Y cells; format: cell-based; conditions: for cell survival, of the untreated control, rotenone-induced death: 2 days, pre-incubation 1 mM each; for cell survival in H2O2-induced death (in words): H2O2 (not shown); for cell survival, of the control, H2O2-induced death: 0.6 mM H2O2, by 20 hours, pre-treatment 1 mM each
Procedure: SH-SY5Y cells were subcultured in the 12-well plate in DMEM containing 10% fetal bovine serum until 50% confluency. For experiment, the medium was replaced with serum-free DMEM and testing agents were added. The culture was continued in the incubator and parallel samples were taken out at various time intervals for microscopic examination or cell viability assay using an MTT toxicity assay kit (Sigma, Mo.) according to the manufacturer's instructions with modifications (Chen and Fernandez, 2004).

Nc1ncnc2c1ncn2[C@@H]1O[C@H](COP(=O)(O)OP(=O)(O)O)[C@@H](O)[C@H]1O [ADP, adenosine diphosphate, reference compound]
effect on APP α-processing / APP secretion (in words) (APP α-processing [1]): did not show the same effects

Nc1ncnc2c1ncn2[C@@H]1O[C@H](COP(=O)(O)OP(=O)(O)OP(=O)(O)O)[C@@H](O)[C@H]1O [ATP, adenosine triphosphate]
sAPPα release in aged cells, of the young cell level (APP α-processing [2]): 82.3%
sAPPα level, of the control, co-treatment with rotenone (APP α-processing [2]; young fibroblasts): 79.2%
sAPPα level, of the control, co-treatment with H2O2 (APP α-processing [2]; young fibroblasts): 89.3%
sAPPα release relative to basal line (APP α-processing [1]): 3.3 fold
EC50 (APP α-processing [1]; Homo sapiens, read-out: EC50 for promoting sAPPα release): 480 µM
stimulatory effect on sAPPα release in the presence of NaN3 (APP α-processing [1]; NaN3 25 mM pre-incubated 15 minutes): completely abolished
stimulatory effect on sAPPα release in the presence of rotenone (APP α-processing [1]; rotenone 20 μM pre-incubated 15 minutes): completely abolished
cell survival, of the untreated control, rotenone-induced death (SH-SY5Y cells; 0.2 μM rotenone, MTT): 15%
cell survival in H2O2-induced death (in words) (SH-SY5Y cells): moderately increased cell survival

CC(C)(COP(=O)(O)OP(=O)(O)OC[C@H]1O[C@@H](n2cnc3c(N)ncnc32)[C@H](O)[C@@H]1OP(=O)(O)O)[C@@H](O)C(=O)NCCC(=O)NCCS [CoA, coenzyme A, reference compound]
effect on APP α-processing / APP secretion (in words) (APP α-processing [1]): did not show the same effects

CN(CC(=O)O)C(=N)N [Cr, creatine, reference compound]
effect on APP α-processing / APP secretion (in words) (APP α-processing [1]): did not show the same effects

Nc1nc2c(ncn2[C@@H]2O[C@H](COP(=O)(O)OP(=O)(O)OP(=O)(O)O)[C@@H](O)[C@H]2O)c(=O)[nH]1 [GTP, guanosine triphosphate]
cell survival, of the untreated control, rotenone-induced death (SH-SY5Y cells; 0.2 μM rotenone, MTT): 17%
cell survival in H2O2-induced death (in words) (SH-SY5Y cells): moderately increased cell survival

OO [H2O2, reference compound]
sAPPα release, of the young cell control, H2O2 alone (APP α-processing [2]; young fibroblasts, 0.2 mM H2O2, two hours): 46.1%
cell death caused by H2O2 alone (SH-SY5Y cells; 0.6 mM H2O2): killed all cells by 10 hours

CN(CC(=O)O)C(=N)NP(=O)(O)O [PCr, phosphocreatine]
sAPPα release in aged cells, of the young cell level (APP α-processing [2]): 79.6%
sAPPα release relative to basal line (APP α-processing [1]): 4.2 fold
cell survival, of the untreated control, rotenone-induced death (SH-SY5Y cells; 0.2 μM rotenone, MTT): 42%
cell survival, of the control, H2O2-induced death (SH-SY5Y cells): 49%

C=C(OP(=O)(O)O)C(=O)O [PEP, phosphoenol pyruvate]
sAPPα level, of the control, co-treatment with rotenone (APP α-processing [2]; young fibroblasts): 90.3%
cell survival, of the untreated control, rotenone-induced death (SH-SY5Y cells; 0.2 μM rotenone, MTT): 53%
cell morphology under microscopy, rotenone-induced death (SH-SY5Y cells; 0.2 μM rotenone, pre-incubation 1 mM for 30 min): substantially preserved the cell shape and the processes
cell survival, of the control, H2O2-induced death (SH-SY5Y cells): 38%

CC(=O)SCCNC(=O)CCNC(=O)[C@H](O)C(C)(C)COP(=O)(O)OP(=O)(O)OC[C@H]1O[C@@H](n2cnc3c(N)ncnc32)[C@H](O)[C@@H]1OP(=O)(O)O [acetyl-coA, acetyl coenzyme A]
sAPPα level, of the control, co-treatment with H2O2 (APP α-processing [2]; young fibroblasts): 74.5%
sAPPα release relative to basal line (APP α-processing [1]): 3.8 fold
cell survival, of the untreated control, rotenone-induced death (SH-SY5Y cells; 0.2 μM rotenone, MTT): 35%
cell survival, of the control, H2O2-induced death (SH-SY5Y cells): 21%

N[C@@H](CCC(=O)O)C(=O)O [glutamate, reference compound]
sAPPα release relative to basal line (APP α-processing [1]): 2.3 fold

C=C(C)[C@H]1Cc2c(ccc3c2O[C@@H]2COc4cc(OC)c(OC)cc4[C@@H]2C3=O)O1 [rotenone, reference compound]
sAPPα level, of the control, rotenone alone (APP α-processing [2]; young fibroblasts, 0.2 μM rotenone, two hours): 52.3%
cell death caused by rotenone alone (SH-SY5Y cells; 0.2 μM rotenone, MTT): caused all cells to die by 2 days
